In patent publication US12331054B2, “Perk inhibiting imidazolopyrazine compounds” (HiberCell, Inc., priority 2019, dated 2025) one finds IC50 data, which are given here for 22 compounds.

What is called IC50 is the concentration needed to halve the response being measured.

In experiment [1] the test system is eIF2α in HEK293-EGFP-eIF2α cells. Nature of the experiment: PERK Cellular Assay (HEK293-EGFP-eIF2α cells, tunicamycin-induced ER stress, TR-FRET). Type of experiment: cell-based. Particulars: tunicamycin 2 hours. The procedure, abridged: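 Cells pre-incubated with inhibitor 30 min at 37 °C, then ER stress induced with […] tunicamycin for 2 h. TR-FRET read on lysates; ratio normalized to DMSO control as percent inhibition over a 10-point, 3-fold dilution series; IC50 from 4-parameter logistic fit.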
For orientation: Time-resolved FRET reads energy transfer from a long-lived donor to a nearby acceptor.

Experiment [2] concerns the target Recombinant human EIF2AK3 (PERK) catalytic domain (amino acids 536-1116) (Homo sapiens (Human), UniProt Q9NZJ5). Nature of the experiment: PERK In Vitro Activity Assay (isolated), TR-FRET kinase assay. Particulars: isolated PERK enzyme, 1.5 μM ATP, read-out: Biochemical IC50. An excerpt:
PERK In Vitro Activity Assay (isolated):
In vitro Inhibition of PERK Enzyme Activity (isolated) Recombinant human EIF2AK2 (PKR) catalytic domain (amino acids 252-551), EIF2AK3 (PERK) catalytic domain (amino acids 536-1116), GFP-eIF2a substrate, and Terbium-labelled phospho-eIF2a antibody is obtained (Invitrogen, Carlsbad, CA).
Express and purify HIS-SUMO-GCN2 catalytic domain (amino acids 584-1019) from E. coli. Perform TR-FRET kinase assays in the absence or presence of inhibitors in a reaction buffer consisting of 50 mM HEPES, pH 7.5, 10 mM MgCb, 1.0 mM EGTA, and 0.01% Brij-35, and 100-200 nM GFP-eIF2a substrate. […] Add test compound, initiate the reaction by addition of enzyme, and incubate at room temperature for 45 minutes. Stop the reaction by addition of EDTA to a final concentration of 10 mM, add Terbium-labelled phospho-eIF2a antibody at a final concentration of 2 nM, and incubate for 90 minutes. Monitor the resulting fluorescence in an EnVison® Multilabel reader (PerkinElmer, Waltham, MA). Determine TR-FRET ratios and the resulting IC50 values using a 4-parameter nonlinear logistic equation as shown: Y=(A+((B−A)/(1+(C/x)AD)))) where, Y=% specific inhibition, A=Bottom of the curve, B=Top of the curve, C=absolute IC50 (concentration causing 50% inhibition), and D=hill slope.

Recombinant human EIF2AK3 (PERK) catalytic domain (amino acids 536-1116), sequence (Q9NZJ5 536-1116): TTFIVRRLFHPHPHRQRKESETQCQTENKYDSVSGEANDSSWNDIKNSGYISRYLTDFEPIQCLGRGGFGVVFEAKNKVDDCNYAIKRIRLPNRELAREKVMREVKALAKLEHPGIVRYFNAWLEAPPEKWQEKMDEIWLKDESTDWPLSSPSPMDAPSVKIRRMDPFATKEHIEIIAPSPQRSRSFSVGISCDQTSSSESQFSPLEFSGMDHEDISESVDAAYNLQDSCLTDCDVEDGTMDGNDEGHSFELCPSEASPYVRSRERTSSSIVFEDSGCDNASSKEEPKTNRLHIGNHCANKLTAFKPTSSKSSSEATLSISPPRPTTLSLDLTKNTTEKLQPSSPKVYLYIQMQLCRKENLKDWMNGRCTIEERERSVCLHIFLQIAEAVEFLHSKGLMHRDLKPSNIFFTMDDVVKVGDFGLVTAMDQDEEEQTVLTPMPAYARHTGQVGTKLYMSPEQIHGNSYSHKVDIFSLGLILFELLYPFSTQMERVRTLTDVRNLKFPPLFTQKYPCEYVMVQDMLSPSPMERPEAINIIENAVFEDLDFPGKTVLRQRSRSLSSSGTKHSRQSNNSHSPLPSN

`[2H]C([2H])([2H])c1nc(-c2ccc(NC(=O)C(O)c3cc(F)cc(C(F)(F)F)c3)cc2C)c2c(N)nc(C)cn12` (centres unmarked) [Example 53, N-[4-[8-amino-6-methyl-3-(trideuteriomethyl)imidazo[1,5-a]pyrazin-1-yl]-3-methyl-phenyl]-2-[3-fluoro-5-(trifluoromethyl)phenyl]-2-hydroxy-acetamide]: the results for the IC50 in experiment [1] and in experiment [2] were 501 to 1000 nM and 101 to 250 nM, respectively.
As to `[2H]C([2H])([2H])c1nc(-c2ccc(NC(=O)C(O)c3cc(F)cc(C(F)(F)F)c3)cc2C)c2c(N)ncc(C)n12` (centres unmarked) [Example 54, N-[4-[8-amino-5-methyl-3-(trideuteriomethyl)imidazo[1,5-a]pyrazin-1-yl]-3-methyl-phenyl]-2-[3-fluoro-5-(trifluoromethyl)phenyl]-2-hydroxy-acetamide], the IC50 in experiment [1] and in experiment [2] was 1 to 25 nM in each case.
Regarding `[2H]C([2H])([2H])c1nc(-c2ccc(NC(=O)C(O)c3cc(F)cc(C(F)(F)F)c3)cc2C)c2c(N)ncc(C)n12` (centres unmarked) [Example 55, N-[4-[8-amino-5-methyl-3-(trideuteriomethyl)imidazo[1,5-a]pyrazin-1-yl]-3-methyl-phenyl]-2-[3-fluoro-5-(trifluoromethyl)phenyl]-2-hydroxy-acetamide], the IC50 in experiment [1] lay in the range of 101 to 250 nM; in experiment [2], 1 to 25 nM.
On the same counts, the results for `[2H]C([2H])([2H])c1nc(-c2ccc(NC(=O)C(O)c3cc(F)cc(C(F)(F)F)c3)cc2C)c2c(N)ncc(Cl)n12` (centres unmarked) [Example 56, N-[4-[8-amino-5-chloro-3-(trideuteriomethyl)imidazo[1,5-a]pyrazin-1-yl]-3-methyl-phenyl]-2-[3-fluoro-5-(trifluoromethyl)phenyl]-2-hydroxy-acetamide] are 1 to 25 nM and 1 to 25 nM.
As for `[2H]C([2H])([2H])c1nc(-c2ccc(NC(=O)C(O)c3cc(F)cc(C(F)(F)F)c3)cc2C)c2c(N)ncc(Cl)n12` (centres unmarked) [Example 57, N-[4-[8-amino-5-chloro-3-(trideuteriomethyl)imidazo[1,5-a]pyrazin-1-yl]-3-methyl-phenyl]-2-[3-fluoro-5-(trifluoromethyl)phenyl]-2-hydroxy-acetamide], the IC50 is 26 to 50 nM in experiment [1] and 1 to 25 nM in experiment [2].
As for `Cc1cc(NC(=O)C(O)c2cc(F)cc(C(F)(F)F)c2)ccc1-c1nc(C)n2c(C)cnc(N)c12` (centres unmarked) [Example 58, N-(4-(8-amino-3,5-dimethylimidazo [1,5-a]pyrazin-1-yl)-3-methylphenyl)-2-(3-fluoro-5-(trifluoromethyl)phenyl)-2-hydroxyacetamide], the IC50 in experiment [1] is 26 to 50 nM; in experiment [2] it was 1 to 25 nM.
In the case of `Cc1cc(NC(=O)C(O)c2cc(F)cc(C(F)(F)F)c2)ccc1-c1nc(C)n2c(C)cnc(N)c12` (centres unmarked) [Example 59, N-(4-(8-amino-3,5-dimethylimidazo [1,5-a]pyrazin-1-yl)-3-methylphenyl)-2-(3-fluoro-5-(trifluoromethyl)phenyl)-2-hydroxyacetamide], the IC50 in experiment [1] was in the range of 101 to 250 nM; in experiment [2], 1 to 25 nM.
On the same counts, the results for `[2H]C([2H])([2H])c1nc(-c2ccc(NC(=O)C(O)c3cc(F)cc(C(F)(F)F)c3)cc2C)c2c(N)ncc(C(F)(F)F)n12` (centres unmarked) [Example 60, N-[4-[8-amino-3-(trideuteriomethyl)-5-(trifluoromethyl)imidazo[1,5-a]pyrazin-1-yl]-3-methyl-phenyl]-2-[3-fluoro-5-(trifluoromethyl)phenyl]-2-hydroxy-acetamide] are 26 to 50 nM and 1 to 25 nM.
Regarding `[2H]C([2H])([2H])c1nc(-c2ccc(NC(=O)C(O)c3cc(F)cc(C(F)(F)F)c3)cc2C)c2c(N)ncc(C(F)(F)F)n12` (centres unmarked) [Example 61, N-[4-[8-amino-3-(trideuteriomethyl)-5-(trifluoromethyl)imidazo[1,5-a]pyrazin-1-yl]-3-methyl-phenyl]-2-[3-fluoro-5-(trifluoromethyl)phenyl]-2-hydroxy-acetamide], the figures for the IC50 in experiment [1] and in experiment [2] were 251 to 500 nM and 51 to 100 nM, respectively.
On to `Cc1cc(F)cc(C(O)C(=O)Nc2ccc(-c3nc(C)n4c(C)cnc(N)c34)c(C)c2)c1` (centres unmarked) [Example 62, N-(4-(8-amino-3,5-dimethylimidazo [1,5-a]pyrazin-1-yl)-3-methyl-phenyl)-2-(3-fluoro-5-methylphenyl)-2-hydroxyacetamide], for which the half-maximal inhibitory concentration (IC50) in experiment [1] and in experiment [2] was 1 to 25 nM in each case.
`Cc1cc(F)cc(C(O)C(=O)Nc2ccc(-c3nc(C)n4c(C)cnc(N)c34)c(C)c2)c1` (centres unmarked) [Example 63, N-(4-(8-amino-3,5-dimethylimidazo [1,5-a]pyrazin-1-yl)-3-methyl-phenyl)-2-(3-fluoro-5-methylphenyl)-2-hydroxyacetamide]: the IC50 in experiment [1] was in the range of 51 to 100 nM; in experiment [2], 1 to 25 nM.
On the same counts, the results for `Cc1cc(NC(=O)C(O)c2cccc(F)c2)c(F)cc1-c1nc(C)n2c(C)cnc(N)c12` (centres unmarked) [Example 64, N-(4-(8-amino-3,5-dimethylimidazo [1,5-a]pyrazin-1-yl)-2-fluoro-5-methylphenyl)-2-(3-fluorophenyl)-2-hydroxy-acetamide] are 501 to 1000 nM and 51 to 100 nM.
With `Cc1cc(NC(=O)C(O)c2cccc(F)c2)c(F)cc1-c1nc(C)n2c(C)cnc(N)c12` (centres unmarked) [Example 65, N-(4-(8-amino-3,5-dimethylimidazo [1,5-a]pyrazin-1-yl)-2-fluoro-5-methylphenyl)-2-(3-fluorophenyl)-2-hydroxy-acetamide], the 50% inhibitory concentration (IC50) in experiment [1] and in experiment [2] was 1 to 25 nM each time.
Consider `CCc1cc(NC(=O)C(O)c2cccc(F)c2)ccc1-c1nc(C)n2c(C)cnc(N)c12` (centres unmarked) [Example 66, N-(4-(8-amino-3,5-dimethylimidazo [1,5-a]pyrazin-1-yl)-3-ethylphenyl)-2-(3-fluorophenyl)-2-hydroxy-acetamide], for which the values for the IC50 in experiment [1] and in experiment [2] were 26 to 50 nM and 1 to 25 nM, respectively.
For `CCc1cc(NC(=O)C(O)c2cccc(F)c2)ccc1-c1nc(C)n2c(C)cnc(N)c12` (centres unmarked) [Example 67, N-(4-(8-amino-3,5-dimethylimidazo [1,5-a]pyrazin-1-yl)-3-ethylphenyl)-2-(3-fluorophenyl)-2-hydroxy-acetamide], the IC50 was in the range of 101 to 250 nM in experiment [1] and 1 to 25 nM in experiment [2].
On to `Cc1cnc(N)c2c(-c3ccc(NC(=O)C(O)c4cccc(F)c4)cc3)nc(C)n12` (centres unmarked) [Example 68, N-(4-(8-amino-3,5-dimethylimidazo [1,5-a]pyrazin-1-yl)phenyl)-2-(3-fluorophenyl)-2-hydroxyacetamide], for which the figures for the IC50 in experiment [1] and in experiment [2] were 101 to 250 nM and 1 to 25 nM, respectively.
In the case of `Cc1cnc(N)c2c(-c3ccc(NC(=O)C(O)c4cccc(F)c4)cc3)nc(C)n12` (centres unmarked) [Example 69, N-(4-(8-amino-3,5-dimethylimidazo [1,5-a]pyrazin-1-yl)phenyl)-2-(3-fluorophenyl)-2-hydroxyacetamide], the IC50 in experiment [1] and in experiment [2] was 1 to 25 nM in each case.
Consider `Cc1cnc(N)c2c(-c3ccc(NC(=O)C(O)c4cccc(F)c4)cc3F)nc(C)n12` (centres unmarked) [Example 70, N-(4-(8-amino-3,5-dimethylimidazo [1,5-a]pyrazin-1-yl)-3-fluorophenyl)-2-(3-fluorophenyl)-2-hydroxy-acetamide], for which the IC50 in experiment [1] and in experiment [2] was 1 to 25 nM each time.
Regarding `Cc1cnc(N)c2c(-c3ccc(NC(=O)C(O)c4cccc(F)c4)cc3F)nc(C)n12` (centres unmarked) [Example 71, N-(4-(8-amino-3,5-dimethylimidazo [1,5-a]pyrazin-1-yl)-3-fluorophenyl)-2-(3-fluorophenyl)-2-hydroxy-acetamide], the IC50 in experiment [1] was in the range of 51 to 100 nM; in experiment [2], 1 to 25 nM.
On to `[2H]C([2H])([2H])c1nc(-c2ccc(NC(=O)C(O)c3cccc(F)c3)cc2F)c2c(N)ncc(C)n12` (centres unmarked) [Example 72, N-[4-[8-amino-5-methyl-3-(trideuteriomethyl)imidazo[1,5-a]pyrazin-1-yl]-3-fluoro-phenyl]-2-(3-fluorophenyl)-2-hydroxy-acetamide], for which the IC50 in experiment [1] (2 h) and in experiment [2] was 1 to 25 nM each time.
For the compound `[2H]C([2H])([2H])c1nc(-c2ccc(NC(=O)C(O)c3cccc(F)c3)cc2F)c2c(N)ncc(Cl)n12` (centres unmarked) [Example 74, N-[4-[8-amino-5-chloro-3-(trideuteriomethyl)imidazo[1,5-a]pyrazin-1-yl]-3-fluoro-phenyl]-2-(3-fluorophenyl)-2-hydroxy-acetamide], the IC50 in experiment [1] and in experiment [2] was 1 to 25 nM each time.
As to `[2H]C([2H])([2H])c1nc(-c2ccc(NC(=O)C(O)c3cccc(F)c3)cc2F)c2c(N)ncc(Cl)n12` (centres unmarked) [Example 75, N-[4-[8-amino-5-chloro-3-(trideuteriomethyl)imidazo[1,5-a]pyrazin-1-yl]-3-fluoro-phenyl]-2-(3-fluorophenyl)-2-hydroxy-acetamide], the IC50 in experiment [1] fell in the range of 26 to 50 nM; in experiment [2], 1 to 25 nM.
